# Entries after “also recorded” stand apart in the source; their conditions may differ.
# Columns and labels:
# human platelets [1] = assay: Confocal microscopy of platelets incubated with fluorescently labelled peptides; type: cell-based; settings: live washed platelets, 10 µM FITC-labelled peptide, 15 minutes incubation, confocal imaging (Fig. SI_5)
# Description: Fig. 3 A functionalised staple is required to induce peptide uptake into platelets. (A) Platelets were incubated with TAMRA labelled model peptides (10 μM final concentration) for 1 h (white), 2 h (grey) and 3 h incubation (black) and the percentage positive for TAMRA fluorescence was quantified using flow cytometry. (B) Peptides showing high uptake within the first hour were analysed during first 5 min following treatment. Changes in platelet-associated fluorescence were recorded in real time using flow cytometry. Unlabelled platelets were recorded for 30 s prior to addition of the given peptide. (C) Platelets were incubated with 10 μM of TAMRA-model peptides for 1 h prior to imaging by confocal microscopy. ^‡ […]
# Peptide uptake experiments of the most permeable model peptides 5, 13–16 were repeated in the presence of platelet-rich plasma (PRP) to ensure realistic conditions (ESI, Fig. SI_2a ^†).
# Figure SI_3. […]
# Peptides were used to a final concentration of 10 µM. […] Images of TAMRA-labelled model peptide stained platelets were acquired after 1 h incubation1 using with excitation at 565 nm and emission was detected with a 560 -615 nm BP filter. […]
# were acquired after 15 minutes incubation1 using excitation at 488 nm and emission was detected with […]
# human platelets [2] = settings: PRP, 10 μM FITC-labelled peptide, 15, 30, 60 minutes, flow cytometry, average of two independent repeats (Fig. SI_2b)
# From the text: (1 picture or pasted object on this page, not shown here)
# human platelets [3] = assay: PS exposure (annexin-V binding) by flow cytometry; type: cell-based; settings: washed human platelets, 10 μM, 37 °C, time course up to 3 h, flow cytometry (Fig. 5A)
# Description: Platelet activation markers (% positive platelets) were investigated following 1 h of peptide treatment. […] CD63 binding.
# 1.1 Preparation of washed platelet suspension
# Human blood was collected from healthy volunteers, who had not taken medication for two weeks,
# following informed consent in accordance with the Declaration of Helsinki. Blood was collected into 11 mM sodium citrate and washed platelets were prepared as follows: Platelet-rich plasma (PRP) was obtained by centrifugation (240 g, 15 min). Prostaglandin E1 (PGE1, 2 µM) was added to prevent premature platelet activation, and the plasma was centrifuged at 640 g for 15 min. […]
# Treated washed platelet suspensions (1x10^7/mL) were analysed by flow cytometry using a C6 Accuri Flow Cytometer (Beckton Dickinson, UK), in the presence or absence of Annexin-V-PE (BD Biosciences, UK), anti-PAC-1 (BD Biosciences), anti-CD62 (BD Pharmingen, UK), or anti-CD-63P (BD Pharmingen). […]
# PS exposure was assessed after incubation of 50 µL of washed platelet suspensions at 37 °C in 445 µL of […]
# under the protection from direct light and analysed by flow cytometry.
# Platelet activation markers (PAC -1, CD62P and CD63 binding) were assessed after incubation of 3 µL of […]
# antibody and the peptide (1.1 μL of 1 mM stock solution in DMSO) . The suspensions were analysed by […]
smiles,measurement,setting,value
CC[C@H](C)[C@H](NC(C)=O)C(=O)N[C@@H](Cc1c[nH]c2ccccc12)C(=O)N[C@H](C(=O)N[C@@H](C)C(=O)N[C@@H](CCC(N)=O)C(=O)N[C@@H](CCC(=O)O)C(=O)N[C@@H](CC(C)C)C(=O)N[C@@H](CCCNC(=N)N)C(=O)N[C@H]1CCCn2cc(nn2)CCCc2cn(nn2)CCC[C@@H](C(=O)N[C@@H](Cc2ccccc2)C(=O)N[C@@H](CC(N)=O)C(=O)N[C@@H](C)C(=O)N[C@@H](Cc2ccc(O)cc2)C(=O)N[C@@H](Cc2ccc(O)cc2)C(=O)N[C@@H](C)C(=O)N[C@@H](CCCNC(=N)N)C(=O)N[C@@H](CCCNC(=N)N)C(N)=O)NC(=O)[C@H](CC(=O)O)NC(=O)CNC(=O)[C@H]([C@@H](C)CC)NC1=O)[C@@H](C)CC [peptide 18],localisation / platelet permeability of FITC-labelled Bim BH3 peptide,human platelets [1],poor membrane permeability; also recorded: forming aggregates outside the platelet cytosol; also recorded: form fluorescent aggregates outside the platelets
same,platelet fluorescence of FITC-labelled Bim BH3 peptide in plasma,human platelets [2],high platelet fluorescence in plasma
same,PS exposure / annexin-V binding (in words),human platelets [3],No annexin-V binding was observed
